Results as given in patent US6566349B1 (priority 2000, dated 2003).
Read-outs that look alike come from different tables or passages of the source.

How the values were obtained:
Bandedwinged Whitefly [1] = details: in vivo
Bandedwinged Whitefly [2] = details: in vivo; remark: listed apart in the source
Thrips = assay type: in vivo
Beet Armyworm [3] = experiment: Control of beet armyworm in cotton; assay type: in vivo, beet armyworm (Spodoptera exigua)
Tobacco Budworm = experiment: Tobacco budworm boll damage in cotton; assay type: in vivo, tobacco budworm (Heliothis virescens); details: 50 bolls, lb./A: chlorpyrifos + dimethoate 0.62, chlorpyrifos 0.50, Dash 2.0, control 45
Beet Armyworm [4] = experiment: Control of beet armyworm in sweet corn; assay type: in vivo, beet armyworm (Spodoptera exigua)
Fall Armyworm = experiment: Control of fall armyworm in sweet corn; assay type: in vivo, fall armyworm (S. fruqiperda)
[5] = test system: cabbage looper (Trichoplasia ni); experiment: Control of cabbage pests in cabbage: cabbage looper; assay type: in vivo
[6] = test system: diamondback moth (Plutella xylostelia); experiment: Control of cabbage pests in cabbage: diamondback moth; assay type: in vivo
[7] = test system: imported cabbageworm (Pieris rapae); experiment: Control of cabbage pests in cabbage: imported cabbageworm; assay type: in vivo
cotton aphid [8] = assay type: in vivo
cotton aphid [9] = assay type: in vivo; details: for Cotton aphid count 2 days after treatment: 5 leaves per plot, untreated 1277; for Cotton aphid count 2 days after treatment / Cotton aphid % control 2 days after treatment: lb./A: methyl parathion 0.5, oxydemeton-methyl 0.25, Dash 2.0, 53 gallons/A
[10] = test system: Colorado Potato Beetle (Leptinotarsa decemlineata); experiment: Control of Colorado potato beetle in potatoes; assay type: in vivo; details: adjuvant 0.88 lb/A where added; for Total Number of larvae from a six meter plot, 3 DAT L2 / Total Number of larvae from a six meter plot, 7 DAT L2: first and second instar; for Total Number of larvae from a six meter plot, 3 DAT L4 / Total Number of larvae from a six meter plot, 7 DAT L4: third and fourth instar
Text: The efficacy of Guthion™ (azinphosmethyl) alone and in combination with Dash HC® against the Colorado Potato Beetle (Leptinotarsa decemlineata) on potatoes. The test plot area was monitored for the presence of significant naturally occurring populations of the target pest, Colorado potato beetle (CPB). At the critical pest population threshold, treatments were applied to 6 meter, single row plots of the crop using a CO2 pressurized backpack sprayer.
Treatments were sprayed on potatoes in the early bloom stage to a mature population of the Colorado potato beetle. Larvae were evaluated in two classes: class one=first and second instar larvae, class two=third and fourth instar. Population counts were taken at 3 and 7 days after treatment. Trial results can be seen in Table 8.
Azinphosmethyl was applied at a rate of 0.375 lb ai/A. The recommended rate for CPB control. The insecticide was combined with water at a rate of 64.1 gal/acre. […].
Azinphosmethyl was applied at a rate of 0.30 lb ai/A. This is a 20% reduction below the recommended rate for CPB control. The insecticide was combined with water at a rate of 64.1 gal/Acre.
Azinphosmethyl was applied at a rate of 0.19 lb ai/A. This is ½ of the recommended label rate for CPB control. The insecticide was combined with water at a rate of 64.1 gal/acre.
Azinphosmethyl was applied at a rate of 0.375 lb ai/A. The recommended rate for CPB control. The insecticide was combined with water at a rate of 64.1 gal/a.
Azinphosmethyl was applied at a rate of 0.30 lb ai/A. This is a 20% reduction below the recommended rate for CPB control. The insecticide was combined with water at a rate of 64.1 gal/Acre. […] With the 64.1 gal of water used to deliver the mix, the resultant adjuvant concentration was 0.383%.
Azinphosmethyl was applied at a rate of 0.19 lb ai/A. This is ½ of the recommended label rate for CPB control. The insecticide was combined with water at a rate of 64.1 gal/acre. […] With the 64.1 gal of water used to deliver the mix, the resultant adjuvant concentration was 0.383%.

[11] = cotton, lb./A: acephate 0.20, dicrotophos 0.20, Dash 2.0
[12] = lb./A: chlorpyrifos + dimethoate 0.45, chlorpyrifos 0.94, Dash 2.0
[13] = chlorpyrifos 0.62 lb.ai/A, DASH 0.88 lb/a where added
[14] = chlorpyrifos 1.0 lb.ai/A, DASH 0.88 lb/a where added
[15] = chlorpyrifos 1.24 lb.ai/A alone (treatment B), control 2.3

`COP(=O)(NC(C)=O)SC` (stereo not shown) [Acephate, O,S-dimethyl acetylphosphoramidothioate] was tested, and the “# Whitefly adults counted, 7 days after treatment” value (Bandedwinged Whitefly [1]) was 54, the “Whitefly adults % control, 3 days after treatment” value (Bandedwinged Whitefly [1]) was “(98) %” and the “Whitefly adults % control, 7 days after treatment” value (Bandedwinged Whitefly [1]) was “(90) %”. The “Whitefly adults % control, 3 days after treatment” value (Bandedwinged Whitefly [2]) was “(98) %”, the “Thrips % control, 1 DAT” value (Thrips; [11]) was “(80) %” and the “Thrips % control, 5 DAT” value (Thrips; [11]) was “(35) %”. The “Thrips % control, 9 DAT” value (Thrips; [11]) was “(44) %”, the “# Thrips/10 Plants, 0 DAT” value (Thrips; cotton, lb./A: acephate 0.20, dicrotophos 0.20, Dash 2.0, 15 gallons/A, control 252 ± 88) was 174 ± 50 and the “# Thrips/10 Plants, 9 DAT” value (Thrips; cotton, lb./A: acephate 0.20, dicrotophos 0.20, Dash 2.0, control 36 ± 32) was 20 ± 18. The “# Thrips/10 Plants, 5 DAT” value (Thrips; cotton, lb./A: acephate 0.20, dicrotophos 0.20, Dash 2.0, control 65 ± 43) was 42 ± 17 and the “# Thrips/10 Plants, 1 DAT” value (Thrips; cotton, lb./A: acephate 0.20, dicrotophos 0.20, Dash 2.0, control 115 ± 50) was 21 ± 9.

`CCOP(=S)(OCC)Oc1nc(Cl)c(Cl)cc1Cl` [Chlorpyrifos] was tested, and the “beet armyworm control, tankmixed with Dash versus applied alone at the same rates” value (Beet Armyworm [3]; chlorpyrifos at half-to-two-thirds the labeled rate) was “effective and better beet armyworm control when takmixed with Dash than when applied alone”, the “# Beet Armyworms 3 days after treatment” value (Beet Armyworm [3]; cotton, 13-ft row section, lb./A: chlorpyrifos + dimethoate 0.62, chlorpyrifos 0.50, Dash 2.0, 20 gallons/A, control 112) was 73 and the “Beet Armyworms % control 3 days after treatment” value (Beet Armyworm [3]; cotton, lb./A: chlorpyrifos + dimethoate 0.62, chlorpyrifos 0.50, Dash 2.0) was 38%. For the same molecule, the “% Bolls Damaged by Tobacco Budworm 3 DAT” value (Tobacco Budworm) was 42%, the “Beet Armyworm % control 4 DAT” value (Beet Armyworm [4]; [12]) was 66% and the “# Beet Armyworm 4 DAT” value (Beet Armyworm [4]; lb./A: chlorpyrifos + dimethoate 0.45, chlorpyrifos 0.94, Dash 2.0, 33 gallons/A, control 3) was 1. For the same molecule, the “Fall Armyworm % control 4 DAT” value (Fall Armyworm; [12]) was 95%, the “# Fall Armyworm 4 DAT” value (Fall Armyworm; lb./A: chlorpyrifos + dimethoate 0.45, chlorpyrifos 0.94, Dash 2.0, 33 gallons/A, control 5) was 0.25 and the “# of larvae TRIPNI 4DAT” value ([5]; 3 plants per plot, chlorpyrifos 1.24 lb.ai/A alone (treatment B), control 1.7) was 0.7. The “# of larvae TRIPNI 4DAT” value [5, 13] was 2.7, the “# of larvae TRIPNI 7DAT” value [5, 13] was 0.7 and the “# of larvae TRIPNI 4DAT” value [5, 14] was 1.3. The “# of larvae TRIPNI 7DAT” value [5, 14] was 2.0, the “# of larvae TRIPNI 7DAT” value ([5]; chlorpyrifos 1.24 lb.ai/A alone (treatment B), control 0.3) was 0.7 and the “# of larvae PLUTMA 4DAT” value [6, 13] was 0.7. For the same molecule, the “# of larvae PLUTMA 7DAT” value [6, 13] was 0.3, the “# of larvae PLUTMA 4DAT” value [6, 14] was 0.3 and the “# of larvae PLUTMA 7DAT” value [6, 14] was 0. The “# of larvae PLUTMA 7DAT” value ([6]; chlorpyrifos 1.24 lb.ai/A alone (treatment B), control 1.7) was 1.0, the “# of larvae PLUTMA 4DAT” value [6, 15] was 1.0 and the “# of larvae PIERRA 4DAT” value [7, 13] was 0. The “# of larvae PIERRA 7DAT” value [7, 13] was 0.3, the “# of larvae PIERRA 4DAT” value [7, 14] was 0 and the “# of larvae PIERRA 7DAT” value [7, 14] was 1.0. The “# of larvae PIERRA 7DAT” value [7, 15] was 1.3 and the “# of larvae PIERRA 4DAT” value ([7]; chlorpyrifos 1.24 lb.ai/A alone (treatment B), control 4.7) was 0.

`COP(=O)(OC)O/C(C)=C/C(=O)N(C)C` [Dicrotophos] was tested, and the “# Thrips/10 Plants, 0 DAT” value (Thrips; in vivo) was 228 ± 108, the “# Thrips/10 Plants, 1 DAT” value (Thrips; in vivo) was 31 ± 12 and the “# Thrips/10 Plants, 5 DAT” value (Thrips; in vivo) was 36 ± 28. The “# Thrips/10 Plants, 9 DAT” value (Thrips; in vivo) was 35 ± 16, the “Thrips % control, 1 DAT” value (Thrips; in vivo) was “(73) %” and the “Thrips % control, 5 DAT” value (Thrips; in vivo) was “(45) %”. The “Thrips % control, 9 DAT” value (Thrips; in vivo) was “(03) %”.

With `CNC(=O)CSP(=S)(OC)OC` [Dimethoate, O,O-dimethyl S-methylcarbamoylmethyl phosphorodithioate] the “aphid control on tank-mixing with the adjuvant” value (cotton aphid [8]; in vivo) was “Improvement in aphid control”, the “Cotton aphid count 2 days after treatment” value (shortened to “Cotton aphid count 2 days”) (cotton aphid [8]; okra, 20 leaves per plot, lb./A: methyl parathion 0.5, dimethoate 0.25, chlorpyrifos 0.17 + dimethoate 0.14, Dash 2.0, 30 gallons/A, untreated 132) was 19 and the “Cotton aphid % control 2 days after treatment” value (from here on “Cotton aphid % control 2 days”) (cotton aphid [8]; okra, lb./A: methyl parathion 0.5, dimethoate 0.25, chlorpyrifos 0.17 + dimethoate 0.14, Dash 2.0, 30 gallons/A) was 86%.

`COP(=S)(OC)Oc1ccc([N+](=O)[O-])cc1` [Methyl parathion, O,O-dimethyl O-(4-nitrophenyl)phosphorothioate] was tested, and the “Cotton aphid count 2 days” value (cotton aphid [9]) was 293, the “Cotton aphid % control 2 days” value (cotton aphid [9]) was 77% and the “cotton aphid control, tank-mixed with the adjuvant versus applied alone” value (cotton aphid [9]; rates below the recommended maximum rate for aphid control) was “much higher when tank-mixed with the adjuvant than when applied alone”. The “Cotton aphid % control 2 days” value (cotton aphid [8]; in vivo) was 21 (84) % and the “Cotton aphid count 2 days” value (cotton aphid [8]; in vivo) was 21 (84).

`CC[S+]([O-])CCSP(=O)(OC)OC` (stereo not shown) [Oxydemeton-methyl] was tested, and the “Cotton aphid count 2 days” value (cotton aphid [9]) was 74, the “Cotton aphid % control 2 days” value (cotton aphid [9]) was 94% and the “aphid control on tank-mixing with the adjuvant” value (cotton aphid [9]; in vivo) was “Improvement in aphid control”.

`COP(=S)(OC)SCn1nnc2ccccc2c1=O` [azinphosmethyl] was tested, and the “Total Number of larvae from a six meter plot, 3 DAT L2” value (“Total Number of larvae … 3 DAT L2” for short) ([10]; azinphosmethyl 0.19 lb ai/A) was 4.0, the “Total Number of larvae from a six meter plot, 7 DAT L2” value (“Total Number of larvae … 7 DAT L2” below) ([10]; azinphosmethyl 0.19 lb ai/A) was 1.3 and the “Total Number of larvae from a six meter plot, 3 DAT L4” value (shortened to “Total Number of larvae … 3 DAT L4”) ([10]; azinphosmethyl 0.19 lb ai/A) was 11.7. For the same molecule, the “Total Number of larvae from a six meter plot, 7 DAT L4” value (“Total Number of larvae … 7 DAT L4” for short) ([10]; azinphosmethyl 0.19 lb ai/A) was 6.0, the “Total Number of larvae … 3 DAT L2” value ([10]; azinphosmethyl 0.30 lb ai/A) was 5.0 and the “Total Number of larvae … 7 DAT L2” value ([10]; azinphosmethyl 0.30 lb ai/A) was 1.0. For the same molecule, the “Total Number of larvae … 3 DAT L4” value ([10]; azinphosmethyl 0.30 lb ai/A) was 7.7, the “Total Number of larvae … 7 DAT L4” value ([10]; azinphosmethyl 0.30 lb ai/A) was 3.0 and the “Total Number of larvae … 7 DAT L2” value ([10]; azinphosmethyl 0.375 lb ai/A, control 3.0) was 6.0. For the same molecule, the “Total Number of larvae … 3 DAT L2” value ([10]; azinphosmethyl 0.375 lb ai/A, control 29.7) was 0.7, the “Total Number of larvae … 7 DAT L4” value ([10]; azinphosmethyl 0.375 lb ai/A, control 24.3) was 5.0 and the “Total Number of larvae … 3 DAT L4” value ([10]; azinphosmethyl 0.375 lb ai/A, control 79.3) was 12.3.
